Where two headings read alike, the source gives them in different places.
Assay: Pharmacokinetics of omacetaxine in orthotopic glioblastoma PDX and naïve NOD/SCID mice (LC-MS/MS of plasma, brain, liver)
Format: in vivo, mouse
Method: An amount of 10 μL medium samples was vortex-mixed with 30 μL of acetonitrile: formic acid (100:1 v/v) containing 100 nM RO-3306 Internal Standard). After centrifugation, the supernatant was 5-fold diluted in water. OMA concentrations were measured using an LC-MS/MS system that consisted of an UltiMate 3000 LC System (Dionex, Sunnyvale, CA, USA) and an API 4000 mass spectrometer (Sciex, Framingham, MA, USA). Samples were analyzed using a ZORBAX Extend-C18 column (Agilent, Santa Clara, CA, USA), preceded by a Security-guard C18 pre-column (Phenomenex, Utrecht, The Netherlands). Elution was performed using a mixture of mobile phase A (0.1% formic acid in water (v/v)) and mobile phase B (methanol) in a 5 min gradient from 20% to 95% B, followed by 95% B that was maintained for 3 min and then re-equilibrated at 20% B. Multiple reaction monitoring parameters were 546.6/298.1 (OMA) and 352.1/186.0 (RO-3306).
Non-obese diabetic severe combined immunodeficient (NOD/SCID) female mice 6–8 weeks of age were used for this study. All experiments were ethically approved by the local Animal Experiments Committee. Patient-derived glioblastoma cell lines were cultured under serum-free conditions prior to injection into the mice. Mice were stereotactically injected with GS607, GS832 (both 2.5 × 10^5 in 5 μL) or GBM8 (1 × 10^5 in 3 μL) in the right striatum 1.0 mm anteroposterior (AP), 2.0 mm medio lateral (ML) and −2.5 mm dorsal ventral (DV) of bregma suture under aseptic conditions. Mice were monitored daily for signs of persistent abnormal behavior and/or breathing, weight loss >20% and development of neurological symptoms such as convulsions, seizures and/or hemiparesis. Mice were euthanized and the mouse brains harvested for histological and LC/MS/MS analysis.
A single dose of 1.5 mg/kg of OMA was administered s.c. to glioblastoma-bearing NOD/SCID and naïve non-tumor-bearing mice. Mice received OMA prior to the timepoint drug delivery experiment, ensuring the presence of significant tumor masses. For GS607, this was at 78 days; for GS832 at 90 days; and for GBM8 at 46 days post-tumor implantation, based on previous survival experiments. Blood samples were collected at 15 min, 30 min, 60 min, 120 min and 240 min via the tail vein and/or submandibular vein and placed in EDTA tubes. Mice were euthanized at 60 min, 120 min or 240 min with cervical dislocation. Brains and livers were surgically collected and snap-frozen in liquid nitrogen (N2). To preserve the drug stability in plasma mouse blood, samples were centrifuged immediately upon collection. Plasma was separated by centrifugation at 3500 rpm at 4 °C for 15 min. Both plasma and tissue samples were stored at −80 °C until LC-MS/MS analysis.

## COC(=O)C[C@](O)(CCCC(C)(C)O)C(=O)O[C@@H]1C(OC)=C[C@]23CCCN2CCc2cc4c(cc2[C@H]13)OCO4 [OMA, Omacetaxine mepesuccinate]
female, NOD/SCID, mouse, brain, right hemisphere (tumor bearing), sc, 1.5 mg/kg, GS832-PDX, 120 min, single s.c. dose 1.5 mg/kg, n = 5, read-out: [Brain] ± SD, right hemisphere (tumor bearing)
  concentration at 120 min: 20.8 ± 16.9 ng/g
female, NOD/SCID, mouse, brain, right hemisphere (tumor bearing), sc, 1.5 mg/kg, GS832-PDX, 240 min, single s.c. dose 1.5 mg/kg, n = 5, read-out: [Brain] ± SD, right hemisphere (tumor bearing)
  concentration at 240 min: 11.6 ± 6.4 ng/g
female, NOD/SCID, mouse, brain, sc, 1.5 mg/kg, GBM8 PDX, 60 min, single s.c. dose 1.5 mg/kg, read-out: [Brain]/[Plasma] Ratio ± SD
  Kp at 60 min: 0.11
female, NOD/SCID, mouse, brain, sc, 1.5 mg/kg, GS607-PDX, 60 min, single s.c. dose 1.5 mg/kg, n = 2 blood samples, read-out: [Brain]/[Plasma] Ratio ± SD
  Kp at 60 min: 0.23
female, NOD/SCID, mouse, brain, sc, 1.5 mg/kg, GS832-PDX, 60 min, single s.c. dose 1.5 mg/kg, read-out: [Brain]/[Plasma] Ratio ± SD
  Kp at 60 min: 0.1
female, NOD/SCID, mouse, brain, sc, 1.5 mg/kg, GS832-PDX, 120 min, single s.c. dose 1.5 mg/kg, read-out: [Brain]/[Plasma] Ratio ± SD
  Kp at 120 min: 0.37 ± 0.24
female, NOD/SCID, mouse, brain, sc, 1.5 mg/kg, GS832-PDX, 240 min, single s.c. dose 1.5 mg/kg, read-out: [Brain]/[Plasma] Ratio ± SD
  Kp at 240 min: 0.5
female, NOD/SCID, mouse, brain, sc, 1.5 mg/kg, naïve non-tumor-bearing mice, 60 min, single s.c. dose 1.5 mg/kg, read-out: [Brain]/[Plasma] Ratio ± SD
  Kp at 60 min: 0.05 ± 0.01
female, NOD/SCID, mouse, brain, subcutaneous, 1.5 mg/kg, stated as at 60 min, range across PDX models, read-out: B/P ratio across the PDX models
  Kp at 60 min: 0.12 to 0.5
female, NOD/SCID, mouse, liver, sc, 1.5 mg/kg, GBM8 PDX, 60 min, single s.c. dose 1.5 mg/kg, n = 6, read-out: [Liver] ± SD
  concentration at 60 min: 998 ± 254 ng/g
female, NOD/SCID, mouse, liver, sc, 1.5 mg/kg, GS607-PDX, 60 min, single s.c. dose 1.5 mg/kg, n = 4, read-out: [Liver] ± SD
  concentration at 60 min: 1650 ± 163 ng/g
female, NOD/SCID, mouse, liver, sc, 1.5 mg/kg, GS832-PDX, 60 min, single s.c. dose 1.5 mg/kg, n = 5, read-out: [Liver] ± SD
  concentration at 60 min: 680 ± 156 ng/g
female, NOD/SCID, mouse, liver, sc, 1.5 mg/kg, GS832-PDX, 120 min, single s.c. dose 1.5 mg/kg, n = 5, read-out: [Liver] ± SD
  concentration at 120 min: 338 ± 94 ng/g
female, NOD/SCID, mouse, liver, sc, 1.5 mg/kg, GS832-PDX, 240 min, single s.c. dose 1.5 mg/kg, n = 5, read-out: [Liver] ± SD
  concentration at 240 min: 190 ± 48 ng/g
female, NOD/SCID, mouse, liver, sc, 1.5 mg/kg, naïve non-tumor-bearing mice, 60 min, single s.c. dose 1.5 mg/kg, n = 2, read-out: [Liver] ± SD
  concentration at 60 min: 715.9 ± 4.6 ng/g
female, NOD/SCID, mouse, plasma, sc, 1.5 mg/kg, GBM8 PDX, 60 min, single s.c. dose 1.5 mg/kg, n = 6, read-out: [Plasma] ± SD
  concentration at 60 min: 391 ± 58 ng/mL
female, NOD/SCID, mouse, plasma, sc, 1.5 mg/kg, GS607-PDX, 60 min, single s.c. dose 1.5 mg/kg, n = 2 blood samples, read-out: [Plasma] ± SD
  concentration at 60 min: 88 ± 9 ng/mL
female, NOD/SCID, mouse, plasma, sc, 1.5 mg/kg, GS832-PDX NOD/SCID mice, single s.c. dose 1.5 mg/kg, 15 min (Table 1), read-out: [Plasma] ± SD
  concentration at 15 min: 396 ± 59 ng/mL
female, NOD/SCID, mouse, plasma, sc, 1.5 mg/kg, GS832-PDX NOD/SCID mice, single s.c. dose 1.5 mg/kg, 30 min (Table 1), read-out: [Plasma] ± SD
  concentration at 30 min: 282 ± 65.4 ng/mL
female, NOD/SCID, mouse, plasma, sc, 1.5 mg/kg, GS832-PDX NOD/SCID mice, single s.c. dose 1.5 mg/kg, 60 min (Table 1, n = 9), read-out: [Plasma] ± SD
  concentration at 60 min: 166 ± 29 ng/mL
female, NOD/SCID, mouse, plasma, sc, 1.5 mg/kg, GS832-PDX NOD/SCID mice, single s.c. dose 1.5 mg/kg, 120 min (Table 1, n = 10), read-out: [Plasma] ± SD
  concentration at 120 min: 57.8 ± 10.8 ng/mL
female, NOD/SCID, mouse, plasma, sc, 1.5 mg/kg, GS832-PDX NOD/SCID mice, single s.c. dose 1.5 mg/kg, 240 min (Table 1), read-out: [Plasma] ± SD
  concentration at 240 min: 24 ± 3 ng/mL
female, NOD/SCID, mouse, plasma, sc, 1.5 mg/kg, GS832-PDX, 60 min, single s.c. dose 1.5 mg/kg, n = 5 (Table 2), read-out: [Plasma] ± SD
  concentration at 60 min: 186 ± 21.1 ng/mL
female, NOD/SCID, mouse, plasma, sc, 1.5 mg/kg, GS832-PDX, 120 min, single s.c. dose 1.5 mg/kg, n = 5 (Table 2), read-out: [Plasma] ± SD
  concentration at 120 min: 55.6 ± 10.7 ng/mL
female, NOD/SCID, mouse, plasma, sc, 1.5 mg/kg, GS832-PDX, 240 min, single s.c. dose 1.5 mg/kg, n = 5 (Table 2), read-out: [Plasma] ± SD
  concentration at 240 min: 23.5 ± 0.7 ng/mL
female, NOD/SCID, mouse, plasma, sc, 1.5 mg/kg, naïve non-tumor-bearing mice, 60 min, single s.c. dose 1.5 mg/kg, n = 2, read-out: [Plasma] ± SD
  concentration at 60 min: 224 ± 12 ng/mL
female, NOD/SCID, mouse, plasma, sc, GS832 tumor-bearing mice, single s.c. dose 1.5 mg/kg, read-out: time of peak concentration in plasma (converted)
  Tmax: 15 min
female, NOD/SCID, mouse, sc, plasma, GS832 tumor-bearing mice, single s.c. dose 1.5 mg/kg
  half-life: 50 min
naïve non-tumor-bearing mice, 60 min, single s.c. dose 1.5 mg/kg, n = 2, 1.5 mg/kg
  [Brain] ± SD, right hemisphere (non-tumor-bearing): 16.4 ± 2.9 ng/g

From article PMC11678797, “A Repurposed Drug Selection Pipeline to Identify CNS-Penetrant Drug Candidates for Glioblastoma” (Pharmaceuticals, 2024)
